Read-outs that look alike come from different tables or passages of the source.
Tests used:
healthy neonatal piglets [1] = test: Autopsy of IM injection sites for local tissue damage; type: in vivo; conditions: autopsies post-euthanasia; IM 4 or 8 IU/kg, left inner thigh muscle
Experimental: (§1) Following surgical instrumentation and stabilization, a consecutively numbered, sealed brown envelope containing the group allocation was opened (Figure 1). Piglets were randomized into three groups: 0.4 IU/kg IV vasopressin 4 IU/kg IM vasopressin, or 8 IU/kg IM vasopressin. Piglets that were randomized to “IM” were administered one dose intramuscularly in the left inner thigh muscle while piglets randomized to “IV” were administered one dose via the femoral venous catheter followed with a 3 mL normal saline bolus. Arterial blood was collected before drug administration (baseline = time point “0 min”), 1, 2, 3, 4, 5, and 10 min after drug administration. Following final collection of blood, piglets were euthanized with an intravenous overdose of sodium pentobarbital and autopsies of IM injection sites were conducted to assess local tissue damage […].

[2] = Plasma vasopressin concentrations and pharmacokinetics after IV or IM vasopressin; type: in vivo, neonatal piglets; conditions: for level at 1 min / level at 5 min / level at 10 min / AUC(0-t): pig, plasma, n = 5/group, median (IQR); for level at 1 min: 1 min after administration; for level at 1 min / level at 5 min / level at 10 min: arterial blood, read-out: Plasma vasopressin concentration; for level at 5 min: 5 min after administration; for level at 10 min: 10 min after administration; for AUC(0-t): neonatal piglets, read-out: Area under the curve from baseline to 10 min (AUC0–10) (converted)
Experimental: as §1
Demographics of study piglets were recorded. Transonic flow probes, heart rate, and pressure transducer outputs, and Millar catheter were digitized and recorded with LabChart® 8.1.30, programming software (ADInstruments, Houston, TX, USA). Plasma vasopressin concentrations and pharmacokinetic parameters were quantified and analyzed as previously described. Reported plasma vasopressin concentrations only represent exogenous arginine vasopressin. Since pigs produce lysine vasopressin, endogenous vasopressin concentrations could not be quantified.
The data are presented as mean (standard deviation—SD) for normally distributed continuous variables and median (interquartile range—IQR) when the distribution was skewed. The data was tested for normality (Shapiro–Wilk and Kolmogorov–Smirnov test) and compared using either Student’s t-test (data normally distributed), Rank Sum if data were skewed, one- and two-way ANOVA with Dunnett post-test, or Fisher’s exact test for categorical variables. Both Hedges’ g and Cliff’s delta (δ) were reported as standardized measures of effect size as appropriate for parametric and non-parametric data, respectively. Pearson or Spearman’s correlations were reported for parametric or non-parametric data, respectively. p-values are 2-sided and p < 0.05 was considered statistically significant. Statistical analyses were performed with SigmaPlot (Systat Software Inc., San Jose, CA, USA) and R version 4.3.2.

[3] = test system: isolated working rat heart; conditions: during normoxia (not during hypoxia); cited from earlier work
Excerpt: Through its vasoconstrictor effects, vasopressin increases SVR, thereby increasing arterial blood pressure. […] In an anesthetized open-chest dog model, Nakano administered various doses of vasopressin and reported a dose-related relationship between increasing doses and r ...

healthy neonatal piglets [4] = test: Hemodynamic and cardiac function parameters after IV or IM vasopressin; type: in vivo; conditions: for Changes in hemodynamic parameters: n = 5
Experimental: Piglets were instrumented as previously described with modifications. Following induction of anesthesia using isoflurane, piglets underwent a tracheostomy for intubation. Pressure-controlled ventilation (Sechrist Infant Ventilator Model IV-100; Sechrist Industries, Anaheim, CA, USA) was commenced at a respiratory rate of 16–20 breaths/min and pressure of 20/5 cmH2O. Oxygen saturation was maintained within 90–100%, while glucose was provided via an IV infusion of 5% dextrose at 10 mL/kg/hr. IV propofol (5–10 mg/kg/h) and morphine (0.1 mg/kg/h) were provided to maintain anaesthesia, and additional IV doses of propofol (1–2 mg/kg) and morphine (0.05–0.1 mg/kg) were administered as needed (i.e., to maintain adequate sedation/pain medication as determined by movement/pain response). Piglets’ normothermic body temperature of 38.5–39.5 °C was maintained with a heating pad and overhead warmer.
5-French Argyle® (Klein-Baker Medical Inc. San Antonio, TX, USA) double-lumen and single-lumen catheters were inserted via the right femoral vein and artery, respectively. The femoral venous catheter was used for administration of fluids and medications and the arterial catheter for continuous arterial blood pressure monitoring in addition to arterial blood gas measurements. A real-time ultrasonic flow probe (2 mm; Transonic Systems Inc., Ithica, NY, USA) encircled the right common carotid artery to measure cerebral blood flow. A Millar® catheter (MPVS Ultra1, ADInstruments, Houston, TX, USA) was inserted into the left ventricle via the left common carotid artery for continuous measurement of stroke volume, ejection fraction, end-diastolic and -systolic volumes, left ventricular pressure, and left ventricular contractile function (dP/dtmax, dP/dtmin).
Following surgical instrumentation, piglets were placed in the supine position and allowed to recover from surgical instrumentation until baseline hemodynamic measures were stable (minimum one hour). Ventilator rate was adjusted to maintain the partial arterial CO2 between 35–45 mmHg, as determined by periodic arterial blood gas analysis. A Hewlett Packard 78833B monitor (Hewlett Packard Co., Palo Alto, CA, USA) was used for the continuous measurement of heart rate, mean systemic arterial pressure (MAP), systemic systolic and diastolic arterial pressure, and percutaneous oxygen saturation throughout the experiment.
Cerebral oxygenation (crSO2) was measured using the Invos^TM Cerebral/Somatic Oximeter Monitor (Invos 5100, Somanetics Corp., Troy, MI, USA), which calculates crSO2 and expresses values as the percentage of oxygenated haemoglobin (oxygenated haemoglobin/total haemoglobin). The sensors were placed on the right forehead of the piglet and secured with wrap and tape. A slim cap provided light shielding. Regional oxygen saturation values were recorded every second at a sample rate of […].
as §1
Demographics of study piglets were recorded. […]

dogs = conditions: IV vasopressin, cited from earlier work
Excerpt: In the current study, we determined the optimal IM vasopressin dose to be 8 IU/kg, as there were significant changes in hemodynamics and left ventricular contractile function following its administration, while there were little to no hemodynamic changes following 4 IU/kg IM vasopressin administration. […] Even if IV access can be achieved before two minutes, IV concentra ...

[5] = 0.4 IU/kg IV, anesthetized piglets
[6] = 8 IU/kg IM, anesthetized piglets

Q: With `NC(=O)CC[C@@H]1NC(=O)[C@H](Cc2ccccc2)NC(=O)[C@H](Cc2ccc(O)cc2)NC(=O)[C@@H](N)CSSC[C@@H](C(=O)N2CCC[C@H]2C(=O)N[C@@H](CCCN=C(N)N)C(=O)NCC(N)=O)NC(=O)[C@H](CC(N)=O)NC1=O` [vasopressin, arginine vasopressin] as the molecule, how does the “Local tissue damage at the IM injection sites” value (healthy neonatal piglets [1]) read?
A: did not reveal any significant local tissue damage

Q: What about the “Plasma concentrations compared with IV vasopressin” value ([2]; 4 IU/kg IM vs 0.4 IU/kg IV, p < 0.001) of the same molecule?
A: significantly lower

Q: What about the “Plasma concentrations compared with IV vasopressin” value ([2]; 8 IU/kg IM, two minutes after administration) of the same molecule?
A: comparable to IV vasopressin

Q: What about the level at 1 min [2, 5] of the same molecule?
A: 2.2 ng/mL

Q: What about the level at 5 min [2, 5] of the same molecule?
A: 1.74 ng/mL

Q: And the level at 10 min [2, 5]?
A: 1.34 ng/mL

Q: And the AUC(0-t) ([2]; 0.4 IU/kg IV)?
A: 0.266 ng·h/mL

Q: And the AUC(0-t) ([2]; 4 IU/kg IM)?
A: 0.155 ng·h/mL

Q: And the level at 1 min ([2]; 8 IU/kg IM, anesthetized piglets 1–3 days old, exogenous arginine vasopressin only)?
A: 0.39 ng/mL

Q: And the level at 5 min [2, 6]?
A: 2.64 ng/mL

Q: And the level at 10 min [2, 6]?
A: 2.83 ng/mL

Q: What about the AUC(0-t) ([2]; 8 IU/kg IM) of the same molecule?
A: 0.339 ng·h/mL

Q: And the dP/dtmax [3]?
A: significantly decreased

Q: What about the “Brain oxygen saturation compared to baseline” value (healthy neonatal piglets [4]; 0.4 IU/kg IV) of the same molecule?
A: Significantly lower

Q: And the dP/dtmin (healthy neonatal piglets [4]; 0.4 IU/kg IV)?
A: no significant changes

Q: What about the “Stroke volume, cardiac output and ejection fraction” value (healthy neonatal piglets [4]; 0.4 IU/kg IV, 1–3 min after administration) of the same molecule?
A: significantly lower

Q: What about the “Stroke volume and cardiac output” value (healthy neonatal piglets [4]; 0.4 IU/kg IV, one minute after administration) of the same molecule?
A: significantly lower

Q: And the “Carotid blood flow compared with 8 IU/kg IM” value (healthy neonatal piglets [4]; 0.4 IU/kg IV, throughout the experimental period, p = 0.032)?
A: much lower

Q: What about the “Changes in hemodynamic parameters” value (healthy neonatal piglets [4]; 4 IU/kg IM) of the same molecule?
A: failed to produce significant changes

Q: What about the “dP/dtmax (left ventricular contractile function)” value (healthy neonatal piglets [4]; 8 IU/kg IM) of the same molecule?
A: significantly reduced

Q: What about the dP/dtmin (healthy neonatal piglets [4]; 8 IU/kg IM) of the same molecule?
A: no significant changes

Q: What about the “Changes in hemodynamic parameters” value (healthy neonatal piglets [4]; 8 IU/kg IM) of the same molecule?
A: induced significant hemodynamic changes

Q: What about the “MAP, systolic and diastolic pressure” value (healthy neonatal piglets [4]; 8 IU/kg IM, vs baseline) of the same molecule?
A: significant increases

Q: What about the “Decrease in cardiac output” value (dogs; baroreceptor-denervated dogs) of the same molecule?
A: −22.8 (3.0) mL/kg min

Q: And the “Decrease in heart rate” value (dogs; baroreceptor-denervated dogs)?
A: −10 (5) beats/minute

Q: And the “Decrease in cardiac output” value (dogs; healthy dogs)?
A: −39.2 (3.8) mL/kg min

Q: And the “Decrease in heart rate” value (dogs; healthy dogs)?
A: −22 (4) beats/minute
